Reference: article PMC5559473, “Screening of TB Actives for Activity against Nontuberculous Mycobacteria Delivers High Hit Rates” (Frontiers in Microbiology, 2017)
Converted amounts (≈) assume the structure as drawn. Read-outs that look alike come from different tables or passages of the source.

Tests used:
M. tuberculosis H37Rv = assay: Dose-response growth inhibition (broth microdilution); type: cell-based; conditions: Mycobacterium tuberculosis, 168 h, M. tuberculosis H37Rv, 7 days; for MIC50: concentration that inhibits 50% of growth, read-out: MIC50; for MIC90: concentration that inhibits 90% of growth, read-out: MIC90
M. abscessus Bamboo [1] = assay: as above; type: cell-based, Mycobacterium abscessus; conditions: Mycobacteroides abscessus; for MIC50: read-out: MIC50
M. avium 11 [2] = assay: as above; type: cell-based, Mycobacterium avium; conditions: Mycobacterium avium, 96 h, M. avium 11, 4 days; for MIC50: read-out: MIC50; for MIC90: read-out: MIC90
[3] = rat, cited from earlier work
M. avium 11 [4] = assay: Bactericidal assay (CFU, fold kill); type: cell-based, Mycobacterium avium; conditions: 10^7 CFU/mL exposed to MIC90 for 4 days, CFU vs starting inoculum
M. abscessus Bamboo [5] = assay: Bactericidal assay (CFU, fold kill); type: cell-based, Mycobacterium abscessus; conditions: for Fold kill at MIC90: 10^7 CFU/mL exposed to MIC90 for 3 days, CFU vs starting inoculum
M. tuberculosis = tested on: M. tuberculosis; parameters: method as in http://www.pathogenbox.org/; conditions: as reported by MMV, ref http://www.pathogenbox.org/; cited from earlier work
[6] = 72 h, M. abscessus Bamboo, 3 days
[7] = 72 h, M. abscessus Bamboo, 3 days, read-out: MIC90
[8] = IV 1 mg/kg, mean n = 2, ref http://www.pathogenbox.org/

Row | Compound | MIC50 (M. tuberculosis H37Rv) [µM] | MIC90 (M. tuberculosis H37Rv) [µM] | MIC50 (M. abscessus Bamboo [1]; [6]) [µM] | MIC90 (M. abscessus Bamboo [1]; [7]) [µM] | MIC50 (M. avium 11 [2]) [µM] | MIC90 (M. avium 11 [2]) [µM] | AUCinf ([3]; in vivo, iv, 1 mg/kg) [ng·h/mL] | AUClast ([3]; in vivo, iv, 1 mg/kg) [ng·h/mL] | C0 ([3]; in vivo, iv, 1 mg/kg) [ng/mL] | Cl ([3]; in vivo, iv, 1 mg/kg) [mL/min/kg] | AUCinf ([3]; in vivo, po, 5 mg/kg) [ng·h/mL] | AUClast ([3]; in vivo, po, 5 mg/kg) [ng·h/mL] | tmax ([3]; in vivo, po, 5 mg/kg) [h] | %F ([3]; in vivo) [%] | Fold kill at MIC90 (M. avium 11 [4]) | Fold kill at MIC90 (M. abscessus Bamboo [5]) | Reported MIC (M. tuberculosis) [µM] | other results
1 | COc1ccc(OC)c(NCc2ccc3nc(N)nc(N)c3c2Cl)c1 [MMV675968] | < 0.2 | 4 (≈ 1.44 µg/mL) | 10.5 (≈ 3.78 µg/mL) | 35 (≈ 12.6 µg/mL) | 0.2 (≈ 0.072 µg/mL) | 3 (≈ 1.08 µg/mL) | 900 | 897 | 1080 | 18.7 | 532 | 504 | 1 | 11 | NK (NK, “no kill,” i.e., CFU reduction < 10-fold at MIC90) | NK (NK, “no kill,” i.e., CFU reduction < 10-fold at MIC90) |  | 
2 | Cc1cc(C)c2cc(C(=O)NC3CCCCCCC3)[nH]c2c1 [MMV687146] | < 0.2 | < 0.2 | 0.8 (≈ 0.239 µg/mL) | 2 (≈ 0.597 µg/mL) | 3 (≈ 0.895 µg/mL) | 9 (≈ 2.69 µg/mL) | 935 | 798 | 2270 | 18.2 | 483 | 456 | 0.75 | 11 | NK (NK, “no kill,” i.e., CFU reduction < 10-fold at MIC90) | 100 fold | <0.024 | 
3 | CCCCOC(=O)Nc1cc2nc(C3CCCCC3)[nH]c2cc1N1CCCC1 [MMV687730] | < 0.2 | < 0.2 | 4 (≈ 1.54 µg/mL) | 8.5 (≈ 3.27 µg/mL) | 5 (≈ 1.92 µg/mL) | 22 (≈ 8.46 µg/mL) |  |  |  |  |  |  |  |  | NK (NK, “no kill,” i.e., CFU reduction < 10-fold at MIC90) | 10 fold | 0.05 | AUCinf [3, 8]: 125 ng·h/mL; AUClast [3, 8]: 108 ng·h/mL; C0 [3, 8]: 444 ng/mL; Cl [3, 8]: 166 mL/min/kg; Vss [3, 8]: 15.9 L/kg; t1/2 [3, 8]: 3.34 h; Cmax ([3]; PO 5 mg/kg, mean n = 2, BLQ = < 1 ng/mL, ref http://www.pathogenbox.org/): NC (BLQ at all time points)
4 | CN1CCN(CCCOc2ncc(Nc3ncc(-c4ccc(C(F)(F)F)c(F)c4)nc3C(N)=O)cn2)CC1 [MMV687812] | < 0.2 | 2.2 (≈ 1.18 µg/mL) | 6 (≈ 3.21 µg/mL) | > 50 | 25 (≈ 13.4 µg/mL) | > 50 | 801 | 381 | 265 | 20.8 | 2450 | 962 | 7 | 50 | NK (NK, “no kill,” i.e., CFU reduction < 10-fold at MIC90) |  | 1.2 | MIC90 (M. abscessus Bamboo [1]; read-out: Concentration at which 80% growth inhibition was achieved (printed in MIC90 column)): 12 µM (≈ 6.41 µg/mL); Fold kill (Fold kill at MIC90) (M. abscessus Bamboo [5]; at 12 μM (80% growth inhibition), MIC90 not reached): NK^∧ (NK, “no kill,” i.e., CFU reduction < 10-fold at MIC90)
5 | CC(=O)NC[C@H]1CN(c2ccc(-c3ccc(CNCc4cnn[nH]4)cc3)c(F)c2)C(=O)O1 [MMV688327, radezolid, reference compound] | 0.5 (≈ 0.219 µg/mL) | 2 (≈ 0.877 µg/mL) | 3.8 (≈ 1.67 µg/mL) | 13 (≈ 5.7 µg/mL) | 4 (≈ 1.75 µg/mL) | 35 (≈ 15.3 µg/mL) |  |  |  |  |  |  |  |  | NK (NK, “no kill,” i.e., CFU reduction < 10-fold at MIC90) | NK (NK, “no kill,” i.e., CFU reduction < 10-fold at MIC90) | 0.3 | 
6 | CC(=O)NCC1CN(c2ccc(-c3ccc(CO)cc3)c(F)c2)C(=O)O1 (centres unmarked) [MMV688508] | < 0.2 | 0.3 (≈ 0.108 µg/mL) | 2.2 (≈ 0.788 µg/mL) | 12 (≈ 4.3 µg/mL) | 0.6 (≈ 0.215 µg/mL) | 8 (≈ 2.87 µg/mL) | 156 | 156 | 1310 | 280 |  | 1.45 | 0.25 | <1 | NK (NK, “no kill,” i.e., CFU reduction < 10-fold at MIC90) | NK (NK, “no kill,” i.e., CFU reduction < 10-fold at MIC90) | 0.4 | 
7 | CC(=O)NC[C@H]1CN(c2ccc(N3CCSCC3)c(F)c2)C(=O)O1 [MMV688756, sutezolid, reference compound] | < 0.2 | 1.2 (≈ 0.424 µg/mL) | 4.2 (≈ 1.48 µg/mL) | 25 (≈ 8.84 µg/mL) | 0.4 (≈ 0.141 µg/mL) | 4 (≈ 1.41 µg/mL) |  |  |  |  |  |  |  |  | NK (NK, “no kill,” i.e., CFU reduction < 10-fold at MIC90) | NK (NK, “no kill,” i.e., CFU reduction < 10-fold at MIC90) | 1.2 | 
